Data reported in patent US8952024B2, “Herbicidal pyrimidone derivatives” (E I du Pont de Nemours and Company, priority 2009, dated 2015).

Legend:
Assay in all cases: Test D pre-/postemergence plant response
Format in all cases: in vivo
[1] = system: Italian ryegrass (Lolium multiflorum)
In short: (§1)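 Each species was planted in mixed loam and sand, treated either before emergence or at the 1- to 4-leaf stage, then kept under glass for 14 to 21 days. Plant response was scored by eye from 0 to 100 relative to controls; a dash marks no result.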

[2] = system: Russian thistle (Salsola kali); settings: scale 0 to 100
In short: as §1

[3] = system: Surinam grass (Brachiaria decumbens)
In short: as §1

[4] = system: bermudagrass (Cynodon dactylon)
In short: as §1

[5] = system: black mustard (Brassica nigra)
In short: as §1

[6] = system: chickweed (common chickweed, Stellaria media); settings: Postemergence, 125 g ai/ha; scale 0 to 100 (0 no effect, 100 complete control)
In short: as §1

[7] = system: field bindweed (Convolvulus arvensis)
In short: as §1

[8] = system: groundsel (common groundsel, Senecio vulgaris); settings: Postemergence
In short: as §1

[9] = system: guineagrass (Panicum maximum)
In short: as §1

[10] = system: large crabgrass (Digitaria sanguinalis)
In short: as §1

[11] = system: morningglory (pitted morningglory, Ipomoea lacunosa)
In short: as §1

[12] = system: naked crabgrass (Digitaria nuda)
In short: as §1

[13] = system: nutsedge (purple nutsedge, Cyperus rotundus)
In short: as §1

[14] = system: purslane (common purslane, Portulaca oleracea)
In short: as §1

[15] = system: quackgrass (Elytrigia repens)
In short: as §1

[16] = system: signalgrass (broadleaf signalgrass, Brachiaria platyphylla)
In short: as §1

[17] = system: sowthistle (common sowthistle, Sonchus oleraceous)
In short: as §1

[18] = Postemergence, 16 g ai/ha, scale 0 to 100
[19] = Postemergence, 31 g ai/ha, scale 0 to 100
[20] = Postemergence, 125 g ai/ha, scale 0 to 100 (0 no effect, 100 complete control)
[21] = Postemergence, 62 g ai/ha, scale 0 to 100 (0 no effect, 100 complete control)
[22] = Preemergence, 16 g ai/ha, scale 0 to 100, 0 no effect, 100 complete control
[23] = Preemergence, 31 g ai/ha, scale 0 to 100 (0 no effect, 100 complete control)
[24] = Preemergence, 125 g ai/ha, scale 0 to 100
[25] = Postemergence, 31 g ai/ha, scale 0 to 100 (0 no effect, 100 complete control)
[26] = Preemergence, 62 g ai/ha, scale 0 to 100

Cc1ccc(F)c(-n2c(-c3ccccc3)ncc(C(=O)C3=C(O)CCCC3=O)c2=O)c1 [Compound 51]
Plant response rating, Ryegrass, Italian [1, 18]: 0 | Plant response rating, Ryegrass, Italian [1, 19]: 0 | Plant response rating, Ryegrass, Italian [1, 20]: 0 | Plant response rating, Ryegrass, Italian [1, 21]: 0 | Plant response rating, Ryegrass, Italian [1, 22]: 0 | Plant response rating, Ryegrass, Italian [1, 23]: 0 | Plant response rating, Ryegrass, Italian [1, 24]: 0 | Plant response rating, Russian Thistle ([2]; Postemergence, 16 g ai/ha): 0 | Plant response rating, Russian Thistle ([2]; Preemergence, 125 g ai/ha): 75 | Plant response rating, Surinam Grass [3, 18]: 50 | Plant response rating, Surinam Grass [3, 19]: 60 | Plant response rating, Surinam Grass [3, 20]: 80 | Plant response rating, Surinam Grass [3, 21]: 70 | Plant response rating, Surinam Grass [3, 22]: 90 | Plant response rating, Surinam Grass [3, 23]: 98 | Plant response rating, Bermudagrass [4, 18]: 65 | Plant response rating, Bermudagrass [4, 25]: 75 | Plant response rating, Bermudagrass [4, 20]: 85 | Plant response rating, Bermudagrass [4, 21]: 80 | Plant response rating, Bermudagrass [4, 22]: 0 | Plant response rating, Bermudagrass [4, 23]: 0 | Plant response rating, Bermudagrass [4, 26]: 0 | Plant response rating, Bermudagrass [4, 24]: 30 | Plant response rating, Black Mustard [5, 18]: 70 | Plant response rating, Black Mustard [5, 25]: 95 | Plant response rating, Black Mustard [5, 20]: 100 | Plant response rating, Black Mustard [5, 22]: 0 | Plant response rating, Black Mustard [5, 23]: 50 | Plant response rating, Black Mustard [5, 26]: 75 | Plant response rating, Black Mustard [5, 24]: 100 | Plant response rating, Chickweed [6]: 70 | Plant response rating, Field Bindweed [7, 18]: 5 | Plant response rating, Field Bindweed [7, 19]: 5 | Plant response rating, Field Bindweed [7, 20]: 60 | Plant response rating, Field Bindweed [7, 21]: 20 | Plant response rating, Field Bindweed [7, 22]: 0 | Plant response rating, Field Bindweed [7, 23]: 0 | Plant response rating, Field Bindweed [7, 26]: 0 | Plant response rating, Field Bindweed [7, 24]: 0 | Plant response rating, Groundsel ([8]; 16 g ai/ha, scale 0 to 100): 85 | Plant response rating, Groundsel ([8]; 31 g ai/ha, scale 0 to 100): 98 | Plant response rating, Groundsel ([8]; 125 g ai/ha, scale 0 to 100 (0 no effect, 100 complete control)): 100 | Plant response rating, Groundsel ([8]; 62 g ai/ha, scale 0 to 100 (0 no effect, 100 complete control)): 100 | Plant response rating, Guineagrass [9, 18]: 20 | Plant response rating, Guineagrass [9, 19]: 30 | Plant response rating, Guineagrass [9, 20]: 50 | Plant response rating, Guineagrass [9, 21]: 30 | Plant response rating, Guineagrass [9, 22]: 0 | Plant response rating, Guineagrass [9, 23]: 0 | Plant response rating, Guineagrass [9, 26]: 0 | Plant response rating, Guineagrass [9, 24]: 75 | Plant response rating, Crabgrass, Large [10, 18]: 25 | Plant response rating, Crabgrass, Large [10, 19]: 35 | Plant response rating, Crabgrass, Large [10, 20]: 35 | Plant response rating, Crabgrass, Large [10, 21]: 35 | Plant response rating, Crabgrass, Large [10, 22]: 0 | Plant response rating, Crabgrass, Large [10, 23]: 5 | Plant response rating, Crabgrass, Large [10, 26]: 5 | Plant response rating, Crabgrass, Large [10, 24]: 5 | Plant response rating, Morningglory [11, 18]: 0 | Plant response rating, Morningglory [11, 19]: 20 | Plant response rating, Morningglory [11, 20]: 65 | Plant response rating, Morningglory [11, 21]: 20 | Plant response rating, Morningglory [11, 22]: 0 | Plant response rating, Morningglory [11, 23]: 0 | Plant response rating, Morningglory [11, 26]: 30 | Plant response rating, Morningglory [11, 24]: 100 | Plant response rating, Crabgrass, Naked [12, 18]: 35 | Plant response rating, Crabgrass, Naked [12, 19]: 50 | Plant response rating, Crabgrass, Naked [12, 20]: 65 | Plant response rating, Crabgrass, Naked [12, 22]: 0 | Plant response rating, Crabgrass, Naked [12, 23]: 0 | Plant response rating, Crabgrass, Naked [12, 26]: 0 | Plant response rating, Crabgrass, Naked [12, 24]: 0 | Plant response rating, Nutsedge, Purple [13, 18]: 0 | Plant response rating, Nutsedge, Purple [13, 19]: 0 | Plant response rating, Nutsedge, Purple [13, 20]: 20 | Plant response rating, Nutsedge, Purple [13, 21]: 15 | Plant response rating, Nutsedge, Purple [13, 22]: 0 | Plant response rating, Nutsedge, Purple [13, 23]: 0 | Plant response rating, Nutsedge, Purple [13, 26]: 5 | Plant response rating, Nutsedge, Purple [13, 24]: 5 | Plant response rating, Purslane [14, 18]: 10 | Plant response rating, Purslane [14, 19]: 20 | Plant response rating, Purslane [14, 20]: 35 | Plant response rating, Purslane [14, 21]: 35 | Plant response rating, Purslane [14, 22]: 0 | Plant response rating, Purslane [14, 23]: 50 | Plant response rating, Purslane [14, 26]: 65 | Plant response rating, Purslane [14, 24]: 100 | Plant response rating, Quackgrass [15, 18]: 0 | Plant response rating, Quackgrass [15, 19]: 0 | Plant response rating, Quackgrass [15, 20]: 0 | Plant response rating, Quackgrass [15, 21]: 0 | Plant response rating, Quackgrass [15, 22]: 0 | Plant response rating, Quackgrass [15, 23]: 0 | Plant response rating, Quackgrass [15, 24]: 0 | Plant response rating, Signalgrass [16, 18]: 5 | Plant response rating, Signalgrass [16, 19]: 35 | Plant response rating, Signalgrass [16, 20]: 50 | Plant response rating, Signalgrass [16, 21]: 50 | Plant response rating, Signalgrass [16, 22]: 0 | Plant response rating, Signalgrass [16, 23]: 0 | Plant response rating, Signalgrass [16, 24]: 10 | Plant response rating, Sowthistle [17, 18]: 95 | Plant response rating, Sowthistle [17, 19]: 98 | Plant response rating, Sowthistle [17, 20]: 100 | Plant response rating, Sowthistle [17, 21]: 100 | Plant response rating, Sowthistle [17, 22]: 40 | Plant response rating, Sowthistle [17, 23]: 75 | Plant response rating, Sowthistle [17, 24]: 100
